Patent US20120122928A1 (priority 2010, published 2012)

Tests used:
[1] = test system: Phytophthora infestans; format: in vivo; conditions: young tomato plants sprayed, active ingredient concentration of 100 (unit not given); inoculated 1 day after treatment; evaluation 7 days after inoculation; 100% = no infection
[2] = test system: Plasmopara viticola; experiment: Plasmopara test (grapevine) / protective; format: in vivo; conditions: young grapevine plants sprayed, active ingredient concentration 10 ppm; evaluation 6 days after inoculation; 100% = no infection
Description: Plasmopara Test (Grapevine)/Protective
To produce an appropriate active ingredient formulation, 1 part by weight of active ingredient is mixed with the specified amounts of solvent and emulsifier, and the concentrate is diluted with water to the desired concentration.
To test for protective efficacy, young plants are sprayed with the active ingredient formulation at the stated application rate. After the spray coating has dried on, the plants are inoculated with an aqueous spore suspension of Plasmopara viticola and then remain in an incubation cabin at approx. 20° C. and 100% relative air humidity for 1 day. Subsequently, the plants are placed in a greenhouse at approx. 21° C. and approx. 90% air humidity for 4 days. The plants are then moistened and placed in an incubation cabin for 1 day.
Evaluation follows 6 days after the inoculation. 0% means an efficacy which corresponds to that of the control, whereas an efficacy of 100% means that no infection is observed.
In this test, the following inventive compounds show, at an active ingredient concentration of 10 ppm, an efficacy of 70% or more: […]

[3] = physchem; conditions: pH 2.7
[4] = LC-MS determination in the acidic range, pH 2.7, 0.1% aqueous formic acid and acetonitrile
[5] = test system: Peronospora brassicae; experiment: Peronospora test (oilseed rape seeds) / seed treatment; format: in vivo; conditions: dose 50 g/dt, 14-day-old plants inoculated, incubated 7 days, infected leaf area, 100% = no disease
Description: Peronospora Test (Oilseed Rape Seeds)/Seed Treatment
The test was conducted under greenhouse conditions.
Oilseed rape seeds treated with an inventive active compound or a combination of inventive active compounds dissolved in N-methyl-2-pyrrolidone and diluted with water to the desired dose were sown in 6*6 cm vessels. The vessels contain 4 cm of a 1:1 mixture of steam-treated field soil and sand. The plants grew at 10° C.
14-day-old plants were inoculated with an aqueous spore suspension of Peronospora brassicae. The vessels containing the plants were incubated in a greenhouse at a temperature of 15° C. and a relative air humidity of 100% for 7 days.
The assessment of the test included the evaluation of the infected leaf area per plant. 0% means an efficiency corresponding to that of the control, while an efficiency of 100% means that no disease is observed.

Row | SMILES | % eff. [1] [%] | % eff. [2] [%] | chromatographic logP [3] | Log P [a] [4] | % eff. [5] [%]
1 | O=C(Nc1cc(C(F)F)ccc1C(F)F)N1CCC(c2nc(C3=NOC(C(F)(F)c4ccccc4)C3)cs2)CC1 (stereo not shown) [I-16, N-[2,5-Bis(difluoromethyl)phenyl]-4-(4-{5-[difluoro(phenyl)methyl]-4,5-dihydro-1,2-oxazol-3-yl}-1,3-thiazol-2-yl)piperidine-1-carboxamide] | 100 | 87 | 3.64 | – | –
2 | COC(c1ccccc1)C1CC(c2csc(C3(F)CCN(C(=O)Cn4nc(C(F)F)cc4C(F)F)CC3)n2)=NO1 (stereo not shown) [I-15, 2-[3,5-Bis(difluoromethyl)-1H-pyrazol-1-yl]-1-[4-fluoro-4-(4-{5-[methoxy(phenyl)methyl]-4,5-dihydro-1,2-oxazol-3-yl}-1,3-thiazol-2-yl)piperidin-1-yl]ethanone] | 95 | – | 3.56 | – | –
3 | Cc1ccc(C)c(NC(=S)N2CCC(c3nc(C4=NOC(C(F)c5c(F)cccc5F)C4)cs3)CC2)c1 (stereo not shown) [I-32] | 94 | 78 | – | 3.80^[a] | –
4 | Cc1ccc(Cl)cc1NC(=O)N1CCC(c2nc(C3=NOC(COc4c(F)cccc4Cl)C3)cs2)CC1 (stereo not shown) [I-51] | 95 | 93 | – | 3.81 | –
5 | O=C(Cn1nc(C(F)F)cc1C(F)F)N1CCC(c2nc(C3=NOC(CSc4ccccc4Br)C3)cs2)CC1 (stereo not shown) [I-63] | 91 | 96 | – | 3.72 | –
6 | CC(O)(c1c(F)cccc1F)C1CC(c2csc(C3CCN(C(=O)Cn4nc(C(F)F)cc4C(F)F)CC3)n2)=NO1 (stereo not shown) [I-47] | 93 | 95 | – | 3.03 | –
7 | O=C(Cn1nc(C(F)F)cc1C(F)F)N1CCC(c2nc(C3=NOC(C(O)c4ccccc4)C3)cs2)CC1 (stereo not shown) [I-8] | 100 | 93 | – | 2.53^[a] | –
8 | O=C(Nc1cc(C(F)F)ccc1C(F)F)N1CCC(c2nc(C3=NOC(C(F)c4c(F)cccc4F)C3)cs2)CC1 (stereo not shown) [I-30] | 95 | 100 | – | 3.60^[a] | –
9 | O=C(Cn1nc(C(F)F)cc1C(F)F)N1CCC(c2nc(-c3cc(COc4ccccc4)on3)cs2)CC1 [I-44] | 95 | 100 | – | 3.63 | –
10 | Cc1cc(C(F)(F)F)nn1CC(=O)N1CCC(c2nc(C3=NOC(C(C)(C)c4c(F)cccc4Cl)C3)cs2)CC1 (stereo not shown) [I-67] | 94 | 100 | – | 4.43 | –
11 | Cc1cc(C(F)(F)F)nn1CC(=O)N1CCC(c2nc(C3=NOC(C(F)(F)c4ccccc4)C3)cs2)CC1 (stereo not shown) [I-25] | 100 | 94 | – | 3.55^[a] | –
12 | Cc1ccc(Cl)cc1NC(=O)N1CCC(c2nc(C3=NOC(COc4c(F)cccc4F)C3)cs2)CC1 (stereo not shown) [I-50] | 92 | 97 | – | 3.66 | –
13 | CC(C)(c1c(F)cccc1F)C1CC(c2csc(C3CCN(C(=O)Cn4nc(C(F)F)cc4C(F)F)CC3)n2)=NO1 (stereo not shown) [I-66] | 94 | 100 | – | 4.05 | –
14 | Cc1cc(C(F)(F)F)nn1CC(=O)N1CCC(c2nc(C3=NOC(C(F)c4ccccc4)C3)cs2)CC1 (stereo not shown) [I-19] | 100 | 94 | – | 3.3^[a] | –
15 | O=C(Cn1nc(C(F)F)cc1C(F)F)N1CCC(c2nc(C3=NOC(COc4c(Cl)cccc4Cl)C3)cs2)CC1 (stereo not shown) [I-1] | 100 | 100 | – | 3.7 | –
16 | Cc1cc(C(F)(F)F)nn1CC(=O)N1CCC(c2nc(C3=NOC(C(C)(C)c4c(F)cccc4F)C3)cs2)CC1 (stereo not shown) [I-62] | 91 | 96 | – | 4.09 | –

Row | SMILES | % eff. [1] [%] | % eff. [2] [%] | chromatographic logP [3] | Log P [a] [4] | % eff. [5] [%]
17 | O=C(Cn1nc(C(F)F)cc1C(F)F)N1CCC(c2nc(C3=NOC(C(F)(F)c4c(F)cccc4F)C3)cs2)CC1 (stereo not shown) [I-22] | 95 | 100 | – | 3.47^[a] | –
18 | O=C(Cn1nc(C(F)F)cc1C(F)F)N1CCC(c2nc(C3=NOC(COc4c(F)cccc4Cl)C3)cs2)CC1 (stereo not shown) [I-74] | 100 | 100 | – | 3.44 | –
19 | Cc1cc(C(F)(F)F)nn1CC(=O)N1CCC(c2nc(C3=NOC(C(F)(F)c4c(F)cccc4F)C3)cs2)CC1 (stereo not shown) [I-28] | 100 | 98 | – | 3.51^[a] | –
20 | O=C(Cn1nc(C(F)F)cc1C(F)F)N1CCC(c2nc(C3=NOC(COc4ccccc4F)C3)cs2)CC1 (stereo not shown) [I-3] | 100 | 100 | – | 3.19 | 98
21 | Cc1ccc(C)c(NC(=S)N2CCC(c3nc(C4=NOC(C(F)c5ccccc5)C4)cs3)CC2)c1 (stereo not shown) [I-39] | 100 | 78 | – | 3.61^[a] | –
22 | O=C(Cn1nc(C(F)F)cc1C(F)F)N1CCC(c2nc(C3=NOC(CSc4ccccc4Cl)C3)cs2)CC1 (stereo not shown) [I-61] | 91 | 93 | – | 3.68 | –
23 | FC(F)c1cc(C(F)F)n(CC(=S)N2CCC(c3nc(C4=NOC(C(F)(F)c5ccccc5)C4)cs3)CC2)n1 (stereo not shown) [I-31, 2-[3,5-Bis(difluoromethyl)-1H-pyrazol-1-yl]-1-[4-(4-{5-[difluoro(phenyl)methyl]-4,5-dihydro-1,2-oxazol-3-yl}-1,3-thiazol-2-yl)piperidin-1-yl]ethanethione] | 100 | 85 | 3.88 | – | –
24 | O=C(CCC1CC(c2csc(C3CCN(C(=O)Cn4nc(C(F)F)cc4C(F)F)CC3)n2)=NO1)c1ccccc1 (stereo not shown) [I-6] | 100 | 96 | – | 3.16 | –
25 | O=C(Cn1nc(C(F)F)cc1C(F)F)N1CCC(c2nc(C3=NOC(COc4c(Br)cccc4Br)C3)cs2)CC1 (stereo not shown) [I-36] | 100 | 100 | – | 3.9 | 78
26 | Cc1ccc(C)c(NC(=S)N2CCC(c3nc(C4=NOC(C(F)(F)c5ccccc5)C4)cs3)CC2)c1 (stereo not shown) [I-21] | 95 | 85 | – | 3.86^[a] | –
27 | CC(=O)c1ccccc1OCC1CC(c2csc(C3CCN(C(=O)Cn4nc(C(F)F)cc4C(F)F)CC3)n2)=NO1 (stereo not shown) [I-12] | 100 | 70 | – | 2.93 | –
28 | O=C(Cn1nc(C(F)F)cc1C(F)F)N1CCC(c2nc(C3=NOC(COc4ccccc4C=NO)C3)cs2)CC1 (mixture of isomers) [I-64] | 95 | 73 | – | 2.62 | –
29 | Cc1cc(C(F)F)nn1CC(=O)N1CCC(c2nc(C3=NOC(COc4c(Cl)cccc4Cl)C3)cs2)CC1 (stereo not shown) [I-45] | 93 | 100 | – | 3.35 | –
30 | Fc1cccc(F)c1C(F)(F)C1CC(c2csc(C3CCN(C(=S)Cn4nc(C(F)F)cc4C(F)F)CC3)n2)=NO1 (stereo not shown) [I-42] | 95 | 100 | – | 3.94^[a] | –
31 | CC(C)(c1ccccc1)C1CC(c2csc(C3CCN(C(=O)Cn4nc(C(F)F)cc4C(F)F)CC3)n2)=NO1 (stereo not shown) [I-4] | 100 | 97 | – | 3.79^[a] | –
